Publication PMC4664966, “Discovery and characterization of novel inhibitors of the sodium-coupled citrate transporter (NaCT or SLC13A5)” (Scientific Reports, 2015)
One block for each compound: values may come before it.

How the values were obtained:
[1] = tested on: parental HEK-293 cells; assay: Whole cell binding experiments with [3H]-2, parental HEK-293 cells; design: species or system human; details: 75 nM
Experimental: Parental HEK-293 cells or HEK-293 cells expressing SLC13A5 were incubated with [^3H]-2 at 75 nM. See supplemental methods for additional details. […]
were plated, and incubated for 48 hours. Following the incubation, NaDC1 and NaDC3 assays were executed identical to the procedure for NaCT.
Binding experiments with [3H]-2. Parental HEK-293 cells or cells overexpressing SLC13A5 were incubated in the media with 75 nM of [3H]-2. These cells were also incubated with either 0, […]
was monitored for 2-hours. The uptake of radioactivity was monitored on Perkin Elmer Microbeta plate reader. In experiments in which cold 2 was added to the media, after 2-hours, the cells were washed 3x with PBS, and then in fresh media 100 μM cold 2 was added for 2-hours and the disappearance of radioactivity was monitored using a Perkin Elmer Microbeta […]
Intra- and extracellular concentrations of compound in cellular assays. kpuu values were determined by measuring total cell and media concentrations corrected for their respective fraction unbound. Detailed methods to determine intra- and extracellular concentrations of […]
Crystallization and X-ray analysis of (S)-2-(4-(tert-butyl)phenethyl)-2-hydroxysuccinic […]
Crystallization conditions. Ethyl acetate (50 mL) was added to (S)-2-(4-(tert-butyl)phenethyl)- 2-hydroxysuccinic acid (3) ([…], 46.2 mmol). The suspension turned to a solution upon heating. […]

[2] = tested on: HEKNaCT cells; assay: OCR and ECAR measurements in HEKNaCT cells incubated with citrate (Seahorse); type: cell-based, human; details: 30 μM compound
Experimental: HEKNaCT cells were plated at 12,000 cells/well onto a poly-d-lysine coated XF96 plate (Sigma, Seahorse Biosciences). Cells were plated in culture media containing HG DMEM, 10% FBS, 2 mM glutamine, 1 mM pyruvate, 0.5 mg/mL Geneticin, and 1% penicillin/streptomycin (Life Technologies) and incubated overnight at 37 °C. The following day, the media was changed to Seahorse Biosciences assay medium (Seahorse Biosciences) supplemented with 10 mM glucose and 2 mM pyruvate (Sigma). The plate was pre-incubated for 1 hour in a 37 °C air incubator. […]

[3] = tested on: human hepatocytes; assay: Incorporation of [14C]-citrate into triglycerides by human hepatocytes; type: cell-based; details: radiolabeled citrate for 24 hours
Experimental: Incorporation of [^14C]-citrate into triglycerides by human hepatocytes was measured using the same procedure as above except cells were incubated with the radioactive citrate for 24 hours. Subsequently, the media was aspirated and 100 μL of isopropyl alcohol:THF (9:1) was added. The plate was shaken for 15 minutes, centrifuged at 3000 revolutions per minute for 5 minutes, and 50 μL of supernatant from each well was applied per TLC lane (Whatman LK6D Silica Gel Plates). Radiolabeled lipids were resolved using a 2-solvent system: Solvent 1 contained a 100:100:100:40:36 mixture of ethyl acetate:isopropyl alcohol:CHCl3:MeOH:0.25% KCl and Solvent 2 a 70:27:3 hexane:diethyl ether:acetic acid mixture. The TLC plate was dried under nitrogen for 30 minutes and [^14C]-standards added to a vacant lane. Bands were visualized and quantitated using a Molecular Dynamics’ Storm 860 PhosphorImager system following 18–36 hours exposure to a Phosphorimager screen.

[4] = Intra-/extracellular unbound concentration ratio (Kpuu) in human hepatocytes; type: in vitro ADME; details: cryopreserved hepatocytes, ratio of free intracellular and media concentration after 1 h incubation at 1 μM, geometric mean of 3 replicates ± SD
Experimental: (§1) kpuu values were determined by measuring total cell and media concentrations corrected for their respective fraction unbound. Detailed methods to determine intra- and extracellular concentrations of compound in the HEKNaCT cells and human hepatocytes will be the subject of a separate manuscript that is under preparation. […]
(§2) Intra- and extracellular concentrations of compound in cellular assays. kpuu values were determined by measuring total cell and media concentrations corrected for their respective […]
(§3) fraction unbound. […]
(§4) The solution was heated to reflux until the total volume was reduced to ~25 mL.
(§5) Hexane (25 mL) was added and the mixture was brought back to reflux than allowed to slowly cool to room temperature. After standing at room temperature for 16 h, the resulting suspension was filtered and dried under high vacuum to yield (S)-2-(4-(tert-butyl)phenethyl)-2-hydroxysuccinic acid (3) as a white solid. The filtrate was allowed to stand at room temperature for 4 days. The solvent evaporated to ~15 mL and large, colorless crystals formed.
(§6) X-ray analysis. Data collection was performed on a Bruker APEX diffractometer at room temperature. Data collection consisted of 3 omega scans and low angle and three at high angle; each with 0.5 step. In addition, 2 phi scans were collected to improve the quality of the […]

[5] = Intra-/extracellular unbound concentration ratio (Kpuu) in HEKNaCT cells; type: in vitro ADME; details: human, ratio of free intracellular and media concentration after 1 h incubation at 1 μM, geometric mean of 3 replicates ± SD
Experimental: as §1, §2, §3, §4, §5, §6

[6] = target: T1, NaDC1 (SLC13A2) (Homo sapiens, UniProt Q13183); assay: Inhibition of citrate or succinate uptake in HEKNaDC1 cells; type: cell-based; details: compound 4: mean of 2 replicates
T1 construct: host or cells: HEK-293, transient (Fugene HD)
T1 sequence (Q13183 1-592): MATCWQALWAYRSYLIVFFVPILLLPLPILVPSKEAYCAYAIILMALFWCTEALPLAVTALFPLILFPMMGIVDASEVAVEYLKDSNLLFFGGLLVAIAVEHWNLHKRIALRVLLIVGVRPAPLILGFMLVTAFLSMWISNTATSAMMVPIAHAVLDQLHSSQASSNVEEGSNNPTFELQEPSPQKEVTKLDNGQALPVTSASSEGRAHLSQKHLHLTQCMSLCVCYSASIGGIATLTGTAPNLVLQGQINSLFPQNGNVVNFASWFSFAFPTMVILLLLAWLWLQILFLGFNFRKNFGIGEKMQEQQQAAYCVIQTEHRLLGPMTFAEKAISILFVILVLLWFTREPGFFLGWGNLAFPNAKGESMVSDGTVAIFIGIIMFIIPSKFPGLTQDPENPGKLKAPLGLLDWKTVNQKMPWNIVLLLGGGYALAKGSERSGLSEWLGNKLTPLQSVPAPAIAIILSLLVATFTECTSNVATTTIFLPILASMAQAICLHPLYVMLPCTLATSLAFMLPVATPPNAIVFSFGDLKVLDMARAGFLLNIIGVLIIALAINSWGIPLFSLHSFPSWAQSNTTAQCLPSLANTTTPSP
From the text: (§7) Protocols to generate the stable cell line overexpressing NaCT or cell transfection with SLC13A2 or SLC13A3 can be found in the supporting information. HEK-293 cells stably transfected with the human sodium Citrate transporter SLC13A5 or transiently transfected with the human SLC13A2 or SLC13A3 transporter were removed from the flasks with dissociation buffer and re-suspended in an equal volume of growth media (DMEM, High Glucose supplemented with 10% heat inactivated fetal bovine serum and 500 μg/ml Geneticin). For the transient transfections, Geneticin was eliminated from the media. Cell suspensions were centrifuged at 1,000 rpm for approximately 5 minutes. Resulting cell pellets were re-suspended in growth media and placed in a 37 °C water bath for approximately 10 minutes prior to a final spin at 1,000 rpm. Following this spin the resulting cell pellets were re-suspended in assay buffer, 142 mM NaCl (or 142 mM choline chloride), 5 mM KCl, 1.2 mM MgSO4, 1.5 mM CaCl, 5 mM glucose and 25 mM HEPES pH 7.4. Cell suspensions were counted and the concentration adjusted as needed with assay buffer to 2e[6] viable cells /mL. 20 μL of cell suspension were added to 384-well cyotstar-T plates followed by the addition of 5 μL of 10× concentration of compound. Cells and compound were incubated at 37 °C for approximately 30 minutes prior to the addition of 25 μL of 300 μM citric acid (16 μM radiolabeled [^14C]-citric acid and 284 μM cold citric acid) to make a 150 μM final concentration of citric acid or 21 μM [^14C]-succinic acid. After substrate addition, the uptake of radioactivity was monitored on Perkin Elmer Microbeta plate reader. Data from reads between 45–90 minutes was used to assess the ability of test compounds to inhibit the uptake of citric or succinic acid. […]
(§8) were plated, and incubated for 48 hours. Following the incubation, NaDC1 and NaDC3 assays were executed identical to the procedure for NaCT. […]
(§9) The solution was heated to reflux until the total volume was reduced to ~25 mL. […]

[7] = target: T2, NaDC3 (SLC13A3) (Homo sapiens, UniProt Q8WWT9); assay: Inhibition of citrate or succinate uptake in HEKNaDC3 cells; type: cell-based; details: compound 4: mean of 2 replicates
T2 construct: host or cells: HEK-293, transient (Fugene HD)
T2 sequence (Q8WWT9 1-602): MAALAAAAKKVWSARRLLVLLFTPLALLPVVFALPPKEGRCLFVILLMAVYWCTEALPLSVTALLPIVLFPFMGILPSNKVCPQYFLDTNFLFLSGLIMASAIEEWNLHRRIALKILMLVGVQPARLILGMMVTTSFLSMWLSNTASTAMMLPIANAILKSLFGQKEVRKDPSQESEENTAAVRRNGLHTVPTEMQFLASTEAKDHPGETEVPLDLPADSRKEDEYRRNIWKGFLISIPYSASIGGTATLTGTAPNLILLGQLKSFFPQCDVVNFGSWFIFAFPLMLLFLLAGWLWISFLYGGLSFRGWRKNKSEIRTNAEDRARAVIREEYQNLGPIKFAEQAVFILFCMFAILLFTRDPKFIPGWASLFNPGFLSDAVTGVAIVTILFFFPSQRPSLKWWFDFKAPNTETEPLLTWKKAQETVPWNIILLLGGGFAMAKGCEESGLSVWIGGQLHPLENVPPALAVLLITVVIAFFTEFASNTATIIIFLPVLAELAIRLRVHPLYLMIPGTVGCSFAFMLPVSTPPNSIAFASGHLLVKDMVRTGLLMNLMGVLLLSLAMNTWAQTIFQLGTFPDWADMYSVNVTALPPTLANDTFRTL
From the text: as §7, §8, §9

[8] = target: NaCT (SLC13A5) (Homo sapiens, UniProt Q86YT5); assay: Inhibition of citrate uptake in HEKNaCT cells; type: cell-based; details: geometric mean of at least 3 replicates
Experimental: HEK-293 cells stably transfected with the human sodium Citrate transporter SLC13A5 or transiently transfected with the human SLC13A2 or SLC13A3 transporter were removed from the flasks with dissociation buffer and re-suspended in an equal volume of growth media (DMEM, High Glucose supplemented with 10% heat inactivated fetal bovine serum and 500 μg/ml Geneticin). For the transient transfections, Geneticin was eliminated from the media. Cell suspensions were centrifuged at 1,000 rpm for approximately 5 minutes. Resulting cell pellets were re-suspended in growth media and placed in a 37 °C water bath for approximately 10 minutes prior to a final spin at 1,000 rpm. […] Cell suspensions were counted and the concentration adjusted as needed with assay buffer to 2e[6] viable cells /mL. 20 μL of cell suspension were added to 384-well cyotstar-T plates followed by the addition of 5 μL of 10× concentration of compound. […] After substrate addition, the uptake of radioactivity was monitored on Perkin Elmer Microbeta plate reader. Data from reads between 45–90 minutes was used to assess the ability of test compounds to inhibit the uptake of citric or succinic acid.

[9] = tested on: HEKNaCT cells; assay: Stability in HEKNaCT cells; type: in vitro ADME, human; details: data not shown
[10] = Passive permeability, MDCK-LE cell monolayer; type: in vitro ADME; details: dog, MDCK; read-out: Papp (passive permeability)
Experimental: Passive permeability was assessed using MDCK-LE cell monolayer as described previously in Di et al., (2011)[44].

[11] = Stability in human hepatocytes; type: in vitro ADME; details: metabolically competent human hepatocytes
[12] = target: T3, NaCT in cryopreserved human hepatocytes (Homo sapiens, UniProt Q86YT5); assay: Inhibition of citrate uptake in cryopreserved human hepatocytes; type: cell-based; details: geometric mean of at least 3 replicates
T3 construct: the transporter was in its native environment, we used cryopreserved human hepatocytes; endogenous in cells; host or cells: cryopreserved human hepatocytes

[13] = Stability in assay media; type: in vitro ADME; details: read-out: t1/2 in assay media
[14] = tested on: HEK-293-derived cells; assay: Cell viability, CellTiter-glo, HEK-293-derived cells; design: species or system human; details: HEK-293-derived cell-based assay conditions
Experimental: For cell viability, cells are incubated with compound for 90 minutes at 37 °C. Following this incubation, 25 μL Cell Titer-Glo (Promega) was added to the plates which were then analyzed on the Envision (luminescence).

NaCT (SLC13A5), sequence (Q86YT5 whole entry): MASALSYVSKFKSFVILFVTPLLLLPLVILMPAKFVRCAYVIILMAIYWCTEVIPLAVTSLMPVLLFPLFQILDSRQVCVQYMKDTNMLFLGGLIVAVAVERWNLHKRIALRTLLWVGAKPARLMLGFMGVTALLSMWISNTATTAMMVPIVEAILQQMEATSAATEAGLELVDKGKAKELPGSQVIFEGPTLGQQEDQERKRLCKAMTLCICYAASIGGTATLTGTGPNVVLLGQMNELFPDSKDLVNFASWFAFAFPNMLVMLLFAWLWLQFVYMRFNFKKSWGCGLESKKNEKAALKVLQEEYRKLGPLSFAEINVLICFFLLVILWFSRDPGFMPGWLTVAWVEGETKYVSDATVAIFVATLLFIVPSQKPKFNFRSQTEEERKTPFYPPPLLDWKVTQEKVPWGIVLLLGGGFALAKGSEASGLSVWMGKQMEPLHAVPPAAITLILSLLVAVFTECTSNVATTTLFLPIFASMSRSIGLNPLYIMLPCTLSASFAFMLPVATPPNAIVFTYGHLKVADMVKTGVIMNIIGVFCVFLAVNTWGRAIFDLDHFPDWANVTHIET
T3 sequence (Q86YT5 whole entry): as above

- IC50 [6]: 5.5 µM
- IC50 [7]: 3.2 µM
Structure (SMILES): O=C(O)C[C@](O)(CCc1ccc(I)cc1)C(=O)O [Compound 4]

- IC50 [8]: > 25 µM
- stability in HEKNaCT cells [9]: stable
- Papp [10]: 13 ×10⁻⁶ cm/s
- half-life [11]: 29 min
- IC50 [12]: 6.76 µM
- half-life [13]: > 120 min
Structure (SMILES): CCOC(=O)[C@@](O)(CCc1ccc(C(C)(C)C)cc1)CC(=O)O [Compound 5]

The next lines start with the compound.

Structure (SMILES): [3H]C([3H])(c1ccc(C(C)(C)C)cc1)C([3H])([3H])[C@@](O)(CC(=O)O)C(=O)O [[^3H]-2]
- interaction with parental HEK-293 cells [1]: no significant interaction

Structure (SMILES): CC(C)(C)c1ccc(CC[C@](O)(CC(=O)O)C(=O)O)cc1 [Compound 3, (S)-2-(4-(tert-butyl)phenethyl)-2-hydroxysuccinic acid]
- effect on citrate induced increase in oxygen consumption rate (OCR) [2]: not
- effect on citrate suppressed extracellular acidification rate (ECAR) ([2]; citrate): not
- label incorporation in TAG [3]: not
- Kp uu at 1 h, 1 µM [4]: 0.4 ± 0.1
- Kp uu at 1 h, 1 µM [5]: 0.6 ± 0.2

Structure (SMILES): CC(C)(C)c1ccc(CCC(O)(CC(=O)O)C(=O)O)cc1 (stereo not drawn) [Compound 1]
- cellular toxicity (CellTiter-glo assessment) [14]: No cellular toxicity
